Substitutions are numbered along the chain they refer to. Activity calls are given as the source filed them. No cut-off for these calls is given here.
Experiments:
SW-620 = assay: Enhancement of HSP90 inhibitor AT13387-induced antiproliferative activity against human SW620 cells assessed as HSP90 inhibitor AT13387 IC50 at 50 uM incubated for 72 hrs by CCK8 assay (reference value: 122.3 nM); format: functional, cell-based; conditions: SW-620, 72 h
HCT-116 [1] = assay: Effect on HSP70 expression level in human HCT-116 cells at 1 to 100 uM incubated for 24 hrs by Western blot analysis; format: functional, cell-based; conditions: dose 1-100 µM
HCT-116 [2] = assay: Enhancement of HSP90 inhibitor AT13387-induced antiproliferative activity against human HCT-116 cells assessed as fold change in HSP90 inhibitor AT13387 IC50 at 50 uM incubated for 72 hrs by CCK8 assay; format: functional
[3] = Toxicity in BALB/c nude mouse xenografted with human HCT-116 cells assessed as body weight loss at 30 to 60 mg/kg, ip administered every other day for 14 days in presence of AT13387; format: organism-based; conditions: in vivo, 336 h, dose 30-60 mg/kg, time 14 day
[4] = molecular target: T1, Serine/threonine-protein phosphatase 5 (Homo sapiens, UniProt P53041); assay: Binding affinity to full length His-tagged human PP5 extracted from Escherichia coli BL21 assessed as dissociation constant by ITC analysis
T1 sequence (P53041 whole entry): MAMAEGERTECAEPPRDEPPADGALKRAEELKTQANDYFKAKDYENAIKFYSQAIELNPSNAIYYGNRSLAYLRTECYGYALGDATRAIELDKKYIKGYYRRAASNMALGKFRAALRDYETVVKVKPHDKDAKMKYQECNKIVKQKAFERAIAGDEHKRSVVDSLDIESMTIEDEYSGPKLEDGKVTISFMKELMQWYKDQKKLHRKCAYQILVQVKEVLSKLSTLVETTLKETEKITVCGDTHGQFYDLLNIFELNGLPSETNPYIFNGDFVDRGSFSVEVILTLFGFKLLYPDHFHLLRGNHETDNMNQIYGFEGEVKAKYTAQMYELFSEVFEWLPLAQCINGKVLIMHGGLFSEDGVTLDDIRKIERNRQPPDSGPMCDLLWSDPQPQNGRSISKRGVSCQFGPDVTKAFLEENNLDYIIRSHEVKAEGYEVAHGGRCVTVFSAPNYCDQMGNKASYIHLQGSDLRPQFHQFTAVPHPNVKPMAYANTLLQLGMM

HCT-116 [5] = assay: Antitumor activity against human HCT-116 cells xenografted in BALB/c nude mouse assessed as decrease in AT13387-induced HSP70 protein expression in tumor at 30 to 60 mg/kg, ip administered every other day for 14 days by Western blot analysis; format: functional, organism-based; conditions: dose 30-60 mg/kg, time 14.0 day
HCT-116 [6] = assay: Antitumor activity against human HCT-116 cells xenografted in BALB/c nude mouse at 30 to 60 mg/kg, ip administered every other day for 14 days in presence of AT13387; format: functional, organism-based; conditions: dose 30-60 mg/kg, time 14.0 day
[7] = molecular target: T2, Low molecular weight phosphotyrosine protein phosphatase (Homo sapiens) (UniProt P24666); assay: Inhibition of LMPTP-A (unknown origin) using DiFMUP as substrate at 0.01 to 1000 uM; conditions: dose 0.01-1000 µM
T2 sequence (whole entry): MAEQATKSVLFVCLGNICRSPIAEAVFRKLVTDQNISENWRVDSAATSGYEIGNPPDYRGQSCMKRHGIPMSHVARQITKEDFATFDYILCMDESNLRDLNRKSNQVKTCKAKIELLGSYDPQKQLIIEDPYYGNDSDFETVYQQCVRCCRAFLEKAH

HCT-116 [8] = assay: Downregulation of AT13387-induced HSP40 expression in human HCT-116 cells at 50 uM incubated for 24 hrs by Western blot analysis; format: functional, cell-based
[9] = system: T3, Serine/threonine-protein phosphatase 5 (Homo sapiens), P53041 [V429A]; assay: Activation of PP5 V429A mutant (unknown origin) using pNPP as substrate assessed as increase in phosphatase activity at 10 to 200 uM incubated for 30 mins by spectrophotometric analysis; conditions: dose 10-200 µM
T3 sequence (whole entry): T1 sequence (P53041 whole entry) with V429A

HCT-116 [10] = assay: Downregulation of AT13387-induced HSP70 mRNA expression in human HCT-116 cells at 50 uM incubated for 24 hrs by qRT-PCR analysis; format: functional, cell-based
[11] = Half-life in Sprague-Dawley rat at 10 mg/kg, ip measured after 8 hrs by LC-MS/MS analysis; format: ADME, organism-based; conditions: in vivo
HCT-116 [12] = assay: Antiproliferative activity against human HCT-116 cells assessed as inhibition of cell proliferation at 1 to 100 uM incubated for 72 hrs by CCK8 assay; format: functional, cell-based; conditions: dose 1-100 µM
HCT-116 [13] = assay: Downregulation of AT13387-induced HSP27 expression in human HCT-116 cells at 50 uM incubated for 24 hrs by Western blot analysis; format: functional, cell-based
[14] = AUC (0 to t) in Sprague-Dawley rat at 10 mg/kg, ip measured after 8 hrs by LC-MS/MS analysis; format: ADME, organism-based; conditions: in vivo
HCT-116 [15] = assay: Enhancement of HSP90 inhibitor AT13387-induced antiproliferative activity against human HCT-116 cells assessed as HSP90 inhibitor AT13387 IC50 at 50 uM incubated for 72 hrs by CCK8 assay (reference value: 78.49 nM); format: functional, cell-based; conditions: HCT-116, 72 h
HCT-116 [16] = assay: Downregulation of AT13387-induced HSP40 expression in PP5 Knockout human HCT-116 cells at 50 uM incubated for 24 hrs by Western blot analysis; format: functional, cell-based

N=c1oc2cc(F)cc(F)c2cc1C(N)=S
IC50 (SW-620): 54.4 nM
Activity (HCT-116 [1]): inactive
fold change (FC) (HCT-116 [2]): 2
Activity [3]: Non-Toxic
Kd [4]: 1140 nM
Activity (HCT-116 [5]): Active
Activity (HCT-116 [6]): Active
inhibition [7]: inactive
Activity (HCT-116 [8]): Active
Activity [9]: inactive
Activity (HCT-116 [10]): Active
half-life [11]: 1.59 h
Activity (HCT-116 [12]): inactive
Activity (HCT-116 [13]): Active
AUC(0-t) at 8 h [14]: 111 ng·h/mL
IC50 (HCT-116 [15]): 40.8 nM
Activity (HCT-116 [16]): inactive

From ChEMBL document CHEMBL5579878, “Allosteric Activation of Protein Phosphatase 5 with Small Molecules” (J Med Chem, 2024)
